Common to all, as to test: relative viability (nuclei count vs DMSO), 5 days (fraction); higher = more cells survive
Compound in the experiment “Ispinesib + Linsitinib”: Cc1ccc(C(=O)N(CCCN)[C@@H](c2nc3cc(Cl)ccc3c(=O)n2Cc2ccccc2)C(C)C)cc1 [Ispinesib] + C[C@]1(O)C[C@@H](c2nc(-c3ccc4ccc(-c5ccccc5)nc4c3)c3c(N)nccn32)C1 [Linsitinib] (partner 1 µM)
Summed up: (§1)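 Medians of duplicate plates are given as relative viability. That measure is the nuclei count in treated wells divided by the count in vehicle wells. Counts were taken on 4× images of lung cancer cell lines in 1536-well plates, 5 days after pin-tool dosing the day after seeding with one drug alone or a fixed anchor-drug dose plus five library-drug doses (not always all listed) in √10 steps.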

Compound in the experiment “Ispinesib + Pemetrexed”: Cc1ccc(C(=O)N(CCCN)[C@@H](c2nc3cc(Cl)ccc3c(=O)n2Cc2ccccc2)C(C)C)cc1 [Ispinesib] + Nc1nc2[nH]cc(CCc3ccc(C(=O)N[C@@H](CCC(=O)O)C(=O)O)cc3)c2c(=O)[nH]1 [Pemetrexed] (partner 0.2 µM)
The gist of the method: as §1

Compound in the experiment “Linsitinib + Alpelisib”: C[C@]1(O)C[C@@H](c2nc(-c3ccc4ccc(-c5ccccc5)nc4c3)c3c(N)nccn32)C1 [Linsitinib] + Cc1nc(NC(=O)N2CCC[C@H]2C(N)=O)sc1-c1ccnc(C(C)(C)C(F)(F)F)c1 [Alpelisib] (partner 2 µM)
The gist of the method:
as §1

Compound in the experiment “Linsitinib + Olaparib”: C[C@]1(O)C[C@@H](c2nc(-c3ccc4ccc(-c5ccccc5)nc4c3)c3c(N)nccn32)C1 [Linsitinib] + O=C(c1cc(Cc2n[nH]c(=O)c3ccccc23)ccc1F)N1CCN(C(=O)C2CC2)CC1 [Olaparib] (partner 8 µM)
The gist of the method:
as §1

Consider UMC-11, for which the relative viability came out at 1.06 in the experiment with Ispinesib + Linsitinib (first compound 0.001 µM); 1.05 with Ispinesib + Linsitinib (first compound 0.003162 µM); 1.05 with Ispinesib + Linsitinib (first compound 0.01 µM); 0.449 in the experiment with Ispinesib + Linsitinib (first compound 0.03162 µM); 0.244 with Ispinesib + Linsitinib (first compound 0.1 µM); 0.844 with Ispinesib + Pemetrexed (first compound 0.001 µM). Further, the relative viability is 0.829 with Ispinesib + Pemetrexed (first compound 0.003162 µM); 0.868 in the experiment with Ispinesib + Pemetrexed (first compound 0.01 µM); 0.451 in the experiment with Ispinesib + Pemetrexed (first compound 0.03162 µM); 0.235 with Ispinesib + Pemetrexed (first compound 0.1 µM); 0.958 with Linsitinib + Alpelisib (first compound 0.01 µM); 0.951 with Linsitinib + Alpelisib (first compound 0.03162 µM). Moreover, the relative viability worked out at 0.961 in the experiment with Linsitinib + Alpelisib (first compound 0.1 µM); 0.969 with Linsitinib + Alpelisib (first compound 1 µM); 0.361 in the experiment with Linsitinib + Olaparib (first compound 0.01 µM); 0.352 with Linsitinib + Olaparib (first compound 0.03162 µM); 0.421 in the experiment with Linsitinib + Olaparib (first compound 0.1 µM); 0.273 with Linsitinib + Olaparib (first compound 0.3162 µM). Besides, the relative viability with Linsitinib + Olaparib (first compound 1 µM) amounted to 0.329.

The values above are taken from the supplement of paper PMC10307832.
